Earlier results as cited in patent publication US6440947B1, “Method for treating occlusive peripheral vascular disease and coronary disease” (The Regents of the University of California, priority 1997, dated 2002).

Tests used:
[1] = tested on: human umbilical vein endothelial cell cultures; settings: physiological concentrations

half-life in vivo: less than 30 seconds
Compound: Nc1ncnc2c1ncn2[C@@H]1O[C@H](CO)[C@@H](O)[C@H]1O [Adenosine, adenosine]
effect on endothelial cell proliferation [1]: stimulates proliferation
